System: 616215-338-R-J1-PDC spheroid with HUVEC/MSC, viability
Assay: Anticancer human tumor 616215-338-R-J1-PDC patient-derived colon adenocarcinoma cell line growth inhibition [TAK]
Conditions: for IC50: curve of first compound; for viability, T/C: stronger effect = lower value
From the text: Combinatorial screen of targeted agents with TAK-243 and ipatasertib in multi-cell type tumor spheroids
A high-throughput screen of multi-cell type tumor spheroids was designed to identify active combinations of targeted small molecules and TAK-243 or ipatasertib. Complex spheroids include a stromal component modeled by human endothelial cells (HUVEC) and fibroblasts modeled by human mesenchymal stem cells (MSCs). The concentration ranges selected for each drug and investigational agent were based upon clinically achievable concentrations if the clinical Cmax of the agent was known.
Compounds. The drugs and investigational agents: TAK-243 (785004), ipatasertib (767898), everolimus (733504), selumetinib (741078), bortezomib (756655), trametinib (758246), ixazomib (758254), vemurafenib (761431), dabrafenib (764134), sapanisertib (764658), alpelisib (765974), and copanlisib (816437), were obtained from the National Cancer Institute (NCI) Developmental Therapeutics Program Chemical Repository. The FDA-approved anticancer drug set is available from the NCI Developmental Therapeutics Program. […] The stock solutions were prepared in dimethyl sulfoxide (DMSO, Sigma-Aldrich, St. Louis, MO, cat. D2650) at 800-fold the tested concentration and stored at -70 degrees C prior to their use. All drugs and investigational agents were tested over a range starting from a high concentration at or near the clinical Cmax and decreasing in half-log increments. If the clinical Cmax for an agent had not been determined, the highest concentration tested was 10 microM.
NCI60 Cell Culture. NCI60 cell lines were obtained from the NCI Developmental Therapeutics Program Tumor Repository. For each lot of cells, the Repository performed Applied Biosystems AmpFLSTR Identifiler testing with PCR amplification to confirm consistency with the published Identifier STR profile for each cell line. Cells were kept in continuous culture for no more than 20 passages. The optimal seeding densities for each of the cell lines at each time point assessed were determined prior to performing the concentration response studies. Briefly, the NCI60 human tumor lines were grown as monolayers in RPMI 1640 medium supplemented with 10% FBS and 2 mmol/L L-glutamine.
An additional 2 lines were from the NCI60 cell line panel including melanomas, MALME-3M and SK-MEL-2. Pooled donor human umbilical vein endothelial cells (HUVEC, Lonza, cat. CC-2519) and human mesenchymal stem cells (hMSC, Lonza, cat. PT-2501) were purchased from Lonza (Walkersville, MD).
PDMR cell lines were grown in complete medium (DC medium): Dulbecco's modified Eagle's medium (DMEM)/F12 supplemented with 5% fetal bovine serum (FBS), 2 mM L-glutamine, 100 U/mL penicillin and 100 µg/ml streptomycin, 0.4 µg/ml hydrocortisone, 10 ng/ml epidermal growth factor (EGF) recombinant human protein, 24 µg/mL adenine, and 0.1 mg/mL primocin. During culture from frozen stock vials, PDMR cells were cultured in the same medium containing 10 µM Y-27632 (see Table 3). The PDCs were cultured in complete DMEM/F12 media without 10 microM Y-27632 dihydrochloride for at least two passages prior to the screen. The pooled donor HUVEC and hMSC were cultured in endothelial cell growth medium 2 (PromoCell, Heidelberg, Germany, cat. C-22011) and mesenchymal stem cell growth medium 2 (PromoCell, cat. C-28009), respectively. For all experiments, HUVEC and hMSC were used at passages </=5.
For the pre-screen, cell seeding densities were determined from a titration spanning the range from 5,000 to 313 cells per well. The mct-spheroids including 60% malignant cells, 25% HUVEC and 15% MSC dispensed as a mixture into U-bottom Ultra-Low Attachment 384-well plates (Corning, NY)
High-throughput Drug Combination Screening.
Prior to their inoculation into 384-well plates, malignant cells, HUVEC, and hMSC were removed from T flasks using TrypLE express (Thermo Fisher Scientific, cat. 12605036) and harvested by centrifugation for 5 min at 233 x g. […]
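Further: spheroids exposed to drugs for 7 days before readout.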

CC(C)(C)c1nc(-c2cccc(NS(=O)(=O)c3c(F)cccc3F)c2F)c(-c2ccnc(N)n2)s1 + CC(C)NCC(C(=O)N1CCN(c2ncnc3c2C(C)CC3O)CC1)c1ccc(Cl)cc1
IC50 (second compound 0.3 µM): 5380 nM
IC50 (second compound 0.949 µM): 834 nM
IC50 (second compound 3 µM): 182 nM
IC50 (second compound 9.49 µM): < 31.6 nM
IC50 (second compound 30 µM): < 31.6 nM
viability, T/C (second compound 0.3 µM, first compound 0.0316 µM): 130%
viability, T/C (second compound 0.3 µM, first compound 0.1 µM): 140%
viability, T/C (second compound 0.3 µM, first compound 0.316 µM): 156%
viability, T/C (second compound 0.3 µM, first compound 1 µM): 138%
viability, T/C (second compound 0.3 µM, first compound 3.16 µM): 77.8%
viability, T/C (second compound 0.3 µM, first compound 10 µM): 17.5%
viability, T/C (second compound 0.949 µM, first compound 0.0316 µM): 141%
viability, T/C (second compound 0.949 µM, first compound 0.1 µM): 132%
viability, T/C (second compound 0.949 µM, first compound 0.316 µM): 87%
viability, T/C (second compound 0.949 µM, first compound 1 µM): 43.1%
viability, T/C (second compound 0.949 µM, first compound 3.16 µM): 22%
viability, T/C (second compound 0.949 µM, first compound 10 µM): 10.1%
viability, T/C (second compound 3 µM, first compound 0.0316 µM): 63.5%
viability, T/C (second compound 3 µM, first compound 0.1 µM): 69%
viability, T/C (second compound 3 µM, first compound 0.316 µM): 35.1%
viability, T/C (second compound 3 µM, first compound 1 µM): 16.8%
viability, T/C (second compound 3 µM, first compound 3.16 µM): 10.3%
viability, T/C (second compound 3 µM, first compound 10 µM): 7.4%
viability, T/C (second compound 9.49 µM, first compound 0.0316 µM): 21.2%
viability, T/C (second compound 9.49 µM, first compound 0.1 µM): 19.9%
viability, T/C (second compound 9.49 µM, first compound 0.316 µM): 15.2%
viability, T/C (second compound 9.49 µM, first compound 1 µM): 8.91%
viability, T/C (second compound 9.49 µM, first compound 3.16 µM): 5.79%
viability, T/C (second compound 9.49 µM, first compound 10 µM): 6.27%
viability, T/C (second compound 30 µM, first compound 0.0316 µM): 8.84%
viability, T/C (second compound 30 µM, first compound 0.1 µM): 10.3%
viability, T/C (second compound 30 µM, first compound 0.316 µM): 7.86%
viability, T/C (second compound 30 µM, first compound 1 µM): 6.37%
viability, T/C (second compound 30 µM, first compound 3.16 µM): 3.65%
viability, T/C (second compound 30 µM, first compound 10 µM): 3.34%

CC(C)CC(NC(=O)C(Cc1ccccc1)NC(=O)c1cnccn1)B(O)O (stereo not given) + CC(C)NCC(C(=O)N1CCN(c2ncnc3c2C(C)CC3O)CC1)c1ccc(Cl)cc1
IC50 (second compound 0.3 µM): > 10 nM
IC50 (second compound 0.949 µM): > 10 nM
IC50 (second compound 3 µM): 5.34 nM
IC50 (second compound 9.49 µM): < 0.0316 nM
IC50 (second compound 30 µM): < 0.0316 nM
viability, T/C (second compound 0.3 µM, first compound 31.6 pM): 90.8%
viability, T/C (second compound 0.3 µM, first compound 0.0001 µM): 99.2%
viability, T/C (second compound 0.3 µM, first compound 0.000316 µM): 90.8%
viability, T/C (second compound 0.3 µM, first compound 0.001 µM): 95.1%
viability, T/C (second compound 0.3 µM, first compound 0.00316 µM): 96.6%
viability, T/C (second compound 0.3 µM, first compound 0.01 µM): 112%
viability, T/C (second compound 0.949 µM, first compound 31.6 pM): 114%
viability, T/C (second compound 0.949 µM, first compound 0.0001 µM): 109%
viability, T/C (second compound 0.949 µM, first compound 0.000316 µM): 121%
viability, T/C (second compound 0.949 µM, first compound 0.001 µM): 112%
viability, T/C (second compound 0.949 µM, first compound 0.00316 µM): 111%
viability, T/C (second compound 0.949 µM, first compound 0.01 µM): 80.3%
viability, T/C (second compound 3 µM, first compound 31.6 pM): 81.1%
viability, T/C (second compound 3 µM, first compound 0.0001 µM): 88.7%
viability, T/C (second compound 3 µM, first compound 0.000316 µM): 88.7%
viability, T/C (second compound 3 µM, first compound 0.001 µM): 80.9%
viability, T/C (second compound 3 µM, first compound 0.00316 µM): 84.8%
viability, T/C (second compound 3 µM, first compound 0.01 µM): 8.39%
viability, T/C (second compound 9.49 µM, first compound 31.6 pM): 33.9%
viability, T/C (second compound 9.49 µM, first compound 0.0001 µM): 35.2%
viability, T/C (second compound 9.49 µM, first compound 0.000316 µM): 26.4%
viability, T/C (second compound 9.49 µM, first compound 0.001 µM): 29.8%
viability, T/C (second compound 9.49 µM, first compound 0.00316 µM): 32.2%
viability, T/C (second compound 9.49 µM, first compound 0.01 µM): 0.75%
viability, T/C (second compound 30 µM, first compound 31.6 pM): 15.3%
viability, T/C (second compound 30 µM, first compound 0.0001 µM): 15.2%
viability, T/C (second compound 30 µM, first compound 0.000316 µM): 14.1%
viability, T/C (second compound 30 µM, first compound 0.001 µM): 13.2%
viability, T/C (second compound 30 µM, first compound 0.00316 µM): 15.1%
viability, T/C (second compound 30 µM, first compound 0.01 µM): 0.24%
